Experimental data: patent publication US20090221581A1, “Methods of treating pain” (priority 2005, published 2009)
“Also recorded” adds a separate entry of the source.

How the values were obtained:
CDK7/CycH/MAT1 = target: T1, CDK7/CycH/MAT1 (Homo sapiens, UniProt P50613); assay: In vitro kinase inhibition assay, CDK7/CycH/MAT1; format: biochemical
T1 construct: made in house; host or cells: Sf9 insect cells, baculovirus

formalin-treated mice = assay: Formalin assay, licking behaviour; format: in vivo; conditions: 30 mg/kg i.p. 30 min before formalin injection
Protocol: The formalin assay in mice is a valid and reliable behavioral model of nociception and is sensitive to various classes of analgesic drugs (Hunskaar S & Hole K, Pain. 1987, 30(1):103-14.) The noxious stimulus consists of a subcutaneous or an intraplantar injection of 10 μl diluted formalin (2% in saline) into the left hind paw. The response is licking and flinching of the injected paw.
Age, sex and weight matched wildtype mice (C3HeB/FeJ) were used in this assay. Prior to formalin injection, the animals were randomly subdivided into experimental groups of 10 animals each. […]
For formalin injection, the mouse was held with a paper towel in order to avoid disturbance of the injection by movements. […] The behavior of the formalin- and CDK-inhibitor-treated mice was analyzed as described below.
The behaviour of the formalin-treated mice, i.e. licking and flinching, was monitored by an automated tracking system (Ethovision 3.0 Color Pro, Noldus, Wageningen, Netherlands) over a defined period of time: measurement was initiated 5 min after formalin injection and terminated 30 min after formalin injection. […]
As another possibility of assay read-out, the licking behaviour of the individual animals was tracked manually based on video files. Licking times were recorded over 30 minutes after formalin injection and subdivided for three different licking zones (dorsum, plantar, toes). […]

carrageenan-treated mice = assay: Carrageenan assay, paw edema; format: in vivo; conditions: 30 mg/kg i.p. 30 min prior to carrageenan
Description: The model of carrageenan-induced paw edema constitutes a standard laboratory assay used to predict anti-inflammatory activity of therapeutically active compounds and reduction of inflammation-induced pain perception achieved by administration of therapeutically active compounds.
The basic measurement constitutes in the measurement of edema size and of mechanical as well as thermal hypersensitivity in response to irritants, such as carrageenan.
Inflammation and subsequent inflammatory pain is induced by subcutaneous injection of 25 μl of 1% carrageenan (in saline) into the hind paw (ipsi-lateral paw) of mice. Groups of 10 mice each received compound A, 30 mg/kg body weight, vehicle (DMA/Labrafil; 10:90) and saline (physiol. NaCl) by i.p. injection 30 min prior to carrageenan injection.
Paw edema induced by carrageenan injection was detected by increased paw size measured from dorsal to plantar at the metatarsus region of the injected (ipsi-lateral) paws. Sizes of ipsi- and contra-lateral paws (see FIG. 6, paw size [mm]) served as surrogate markers for inflammation and were measured at several time points after carrageenan injection: 1 h before injection (−1), immediately after injection, 1 h (1), 2 h (2), 4 h (4), 5 h (5), 6 h (6), 7 h (7), 24 h (24), 48 h (48), 72 h (72), 96 h (96), and 98 h (98) after injection. […]

[1] = tested on: TNFα expression in microglial cell line (EOC20); assay: TNFα expression in microglial cells, Real-Time PCR; format: cell-based, human
Protocol: In order to validate the hypothesis that TNFα stimulation is regulated by an autocrine loop (i.e., TNFα induces expression of TNFα; see FIG. 2), a microglial cell line (EOC20) […] was stimulated in vitro by addition of TNFα (20 ng/ml).
1 hour prior to addition of TNFα, stimulated or unstimulated cells, respectively, were treated with DMSO (vehicle control), or 0.5 μM and 0.05 μM, respectively, of compound A. Cells were harvested 48 h after addition of TNFα. RNA was isolated from the samples and the amount of amplicon of TNFα (and of other cytokines) and of several housekeeping genes was measured by light cycler-based Real-Time PCR.

CDK3/CycE = target: T2, CDK3/CycE (Homo sapiens, UniProt Q00526); assay: In vitro kinase inhibition assay, CDK3/CycE; format: biochemical
T2 construct: made in house; host or cells: Sf9 insect cells, baculovirus
T2 sequence (Q00526 whole entry): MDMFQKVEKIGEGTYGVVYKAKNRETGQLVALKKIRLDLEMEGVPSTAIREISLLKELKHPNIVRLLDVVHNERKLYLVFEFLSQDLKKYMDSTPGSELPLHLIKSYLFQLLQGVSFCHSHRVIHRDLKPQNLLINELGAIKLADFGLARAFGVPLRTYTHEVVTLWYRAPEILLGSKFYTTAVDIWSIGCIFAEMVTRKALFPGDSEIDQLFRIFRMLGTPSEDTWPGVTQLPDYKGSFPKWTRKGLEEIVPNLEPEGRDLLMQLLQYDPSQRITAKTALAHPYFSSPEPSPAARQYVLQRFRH
T2 sequence (P24864 whole entry partner): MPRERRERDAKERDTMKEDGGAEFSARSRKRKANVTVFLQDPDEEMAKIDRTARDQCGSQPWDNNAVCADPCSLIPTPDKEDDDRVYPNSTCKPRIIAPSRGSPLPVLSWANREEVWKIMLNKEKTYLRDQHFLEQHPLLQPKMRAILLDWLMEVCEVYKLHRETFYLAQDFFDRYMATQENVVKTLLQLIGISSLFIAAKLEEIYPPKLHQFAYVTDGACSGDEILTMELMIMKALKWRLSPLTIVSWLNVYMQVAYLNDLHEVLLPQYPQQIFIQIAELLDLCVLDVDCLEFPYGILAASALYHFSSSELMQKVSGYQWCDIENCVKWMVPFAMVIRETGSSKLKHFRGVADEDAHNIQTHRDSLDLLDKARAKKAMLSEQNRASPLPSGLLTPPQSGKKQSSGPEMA

T1 sequence (P50613 whole entry): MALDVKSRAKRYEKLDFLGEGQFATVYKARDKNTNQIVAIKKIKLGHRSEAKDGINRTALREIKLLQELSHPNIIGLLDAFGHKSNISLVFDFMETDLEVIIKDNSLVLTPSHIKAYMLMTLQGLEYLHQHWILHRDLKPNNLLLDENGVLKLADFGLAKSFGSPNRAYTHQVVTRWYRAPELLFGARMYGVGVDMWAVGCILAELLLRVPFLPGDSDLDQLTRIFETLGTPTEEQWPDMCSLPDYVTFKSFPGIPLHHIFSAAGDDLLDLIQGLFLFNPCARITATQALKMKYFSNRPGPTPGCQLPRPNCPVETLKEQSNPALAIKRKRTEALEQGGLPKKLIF
T1 sequence (P51946 whole entry partner): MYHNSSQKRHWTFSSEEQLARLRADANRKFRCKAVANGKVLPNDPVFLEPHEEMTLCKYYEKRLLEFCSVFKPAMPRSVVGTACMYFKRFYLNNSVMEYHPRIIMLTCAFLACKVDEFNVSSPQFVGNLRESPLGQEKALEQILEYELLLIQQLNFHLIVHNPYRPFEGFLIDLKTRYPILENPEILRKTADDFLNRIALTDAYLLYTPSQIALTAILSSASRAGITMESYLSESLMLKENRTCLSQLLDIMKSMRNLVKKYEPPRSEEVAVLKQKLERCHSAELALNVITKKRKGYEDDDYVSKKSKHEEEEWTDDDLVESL
T1 sequence (P51948 whole entry partner): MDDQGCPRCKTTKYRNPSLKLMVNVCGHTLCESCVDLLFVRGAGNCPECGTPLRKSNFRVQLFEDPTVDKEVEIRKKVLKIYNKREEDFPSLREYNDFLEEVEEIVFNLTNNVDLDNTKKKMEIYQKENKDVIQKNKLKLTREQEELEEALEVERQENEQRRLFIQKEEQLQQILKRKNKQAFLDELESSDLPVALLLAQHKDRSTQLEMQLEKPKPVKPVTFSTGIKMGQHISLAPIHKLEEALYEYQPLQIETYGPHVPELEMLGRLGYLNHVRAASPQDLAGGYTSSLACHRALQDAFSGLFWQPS

COc1ccccc1-c1cc(Nc2cccc(S(N)(=O)=O)c2)ncn1 [Compound A] was tested, and the IC50 (CDK7/CycH/MAT1) was 10 µM, the “fluorescent dot size of the formalin-treated paw” value (formalin-treated mice) was “no significant reduction of fluorescent dot size” and the licking time (formalin-treated mice; vs vehicle, 30 mg/kg) was “reduction in licking time; also recorded: clearly reduced”. The “increase in paw size” value (carrageenan-treated mice; 24 h after carrageenan injection (control mice 30%)) was 8%, the “increase in paw size” value (carrageenan-treated mice; within the first hour after carrageenan injection) was 10% and the “TNFα message in unstimulated cells” value ([1]; EOC20 cells without TNFα stimulation, 0.5 μM and 0.05 μM compound) was “reduction of TNFα message”. The “TNFα amplicon in TNFα-stimulated cells” value ([1]; EOC20 cells, TNFα 20 ng/ml, 0.5 μM and 0.05 μM compound 1 hour prior, harvested 48 h) was “dose-dependent reduction” and the IC50 (CDK3/CycE) was 18.5 µM.
